Legend:
[1] = Cytotoxicity against mouse BA/F3 cells expressing EGFR L858R mutant; assay type: functional, cell-based; conditions: BaF3
[2] = Cytotoxicity against mouse BA/F3 cells expressing EGFR L858R/T790M mutant; assay type: functional, cell-based; conditions: BaF3

SMILES	IC50 [1]	IC50 [2]
C#Cc1cccc(Nc2ncnc3cc(OCCOC)c(OCCOC)cc23)c1 [ERLOTINIB]	0.0125 µM	–
CCOc1cc2ncc(C#N)c(Nc3ccc(OCc4ccccn4)c(Cl)c3)c2cc1NC(=O)/C=C/CN(C)C [NERATINIB]	0.0035 µM	0.18 µM
